These results are taken from PubChem BioAssay (NCI).

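Results reflect a 48-hour exposure of cells in 96-well plates to compound at five concentrations. TGI marks complete inhibition of growth.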 Some results are limits rather than exact numbers.

One assay concerns CCRF-CEM leukemia. Put plainly: NCI-60 cell line screen, 48 h.
In turn, `O=C(O)c1ccc(NS(=O)(=O)Cc2ccccc2)cc1` had a TGI above 100 µM.

`CCOC(=O)c1cnc2[nH]ccn2c1=O` returned a TGI above 10 µM.

`O=C1C(Br)=Cc2c(Cl)sc(Cl)c21`: the TGI was above 100 µM.

`O=[N+]([O-])C(=C(Sc1ccccc1)Sc1ccccc1)C(Cl)=C(Cl)Cl` returned a TGI of 0.0419 µM.

The compound `NCCCC(N)C(=O)O` (stereo not given) displayed a TGI above 100 µM.

In another assay the test system is BT-549 breast. Put plainly: NCI-60 cell line screen, 48 h.
As to `CO/N=C1/c2sccc2[C@H](NC(=O)CNC(=O)OC(C)(C)C)[C@@H]1O`, the TGI was above 100 µM.

Compound `CCOC(=O)c1c(SCCN2CCCC2)n(-c2ccccc2)c(=S)n(-c2ccccc2)c1=O` had a TGI of 13.9 µM.

`O=c1c2cc(I)ccc2[nH]c(=S)n1Cc1ccccc1` showed a TGI of 44.6 µM.

Consider `Cc1cccc(C[C@@]2(SCc3ccccc3)C(C)(C)[C@@H]3CC[C@@]2(C)C3)n1`, for which the TGI came out at 42.6 µM.

`O=C1/C(=C/c2ccc([N+](=O)[O-])cc2)CNC/C1=C\c1ccc([N+](=O)[O-])cc1` displayed a TGI of 7.73 µM.

In the case of `O=C(O)c1ccc(NS(=O)(=O)Cc2ccccc2)cc1`, the TGI was above 100 µM.

`CCOC(=O)c1cnc2[nH]ccn2c1=O` had a TGI above 10 µM.

Take `O=C1C(Br)=Cc2c(Cl)sc(Cl)c21`: the TGI is 88.4 µM.

In the case of `O=[N+]([O-])C(=C(Sc1ccccc1)Sc1ccccc1)C(Cl)=C(Cl)Cl`, the TGI is 4.61 µM.

For the compound `NCCCC(N)C(=O)O` (stereo not given), the TGI is above 100 µM.

The test system of another assay is SF-295 CNS. Put plainly: NCI-60 cell line screen, 48 h.
Take `CO/N=C1/c2sccc2[C@H](NC(=O)CNC(=O)OC(C)(C)C)[C@@H]1O`: the TGI is above 100 µM.

The compound `CCOC(=O)c1c(SCCN2CCCC2)n(-c2ccccc2)c(=S)n(-c2ccccc2)c1=O` gave a TGI above 75.7 µM.

For `O=c1c2cc(I)ccc2[nH]c(=S)n1Cc1ccccc1`, the TGI was above 100 µM.

The compound `Cc1cccc(C[C@@]2(SCc3ccccc3)C(C)(C)[C@@H]3CC[C@@]2(C)C3)n1` came in with a TGI of 29.1 µM.

Compound `O=C1/C(=C/c2ccc([N+](=O)[O-])cc2)CNC/C1=C\c1ccc([N+](=O)[O-])cc1` showed a TGI of 34.1 µM.

Regarding `O=C(O)c1ccc(NS(=O)(=O)Cc2ccccc2)cc1`, the TGI was above 100 µM.

In turn, `CCOC(=O)c1cnc2[nH]ccn2c1=O` came in with a TGI above 10 µM.

Compound `O=C1C(Br)=Cc2c(Cl)sc(Cl)c21` returned a TGI above 66.4 µM.

Compound `O=[N+]([O-])C(=C(Sc1ccccc1)Sc1ccccc1)C(Cl)=C(Cl)Cl` registered a TGI of 28.3 µM.

Consider `NCCCC(N)C(=O)O` (stereo not given), for which the TGI was above 100 µM.

A further assay concerns A549 NSCLC. The assay can be described thus: NCI-60 cell line screen, 48 h.
As for `CO/N=C1/c2sccc2[C@H](NC(=O)CNC(=O)OC(C)(C)C)[C@@H]1O`, the TGI was above 100 µM.

In turn, `CCOC(=O)c1c(SCCN2CCCC2)n(-c2ccccc2)c(=S)n(-c2ccccc2)c1=O` registered a TGI of 14.6 µM.

In the case of `O=c1c2cc(I)ccc2[nH]c(=S)n1Cc1ccccc1`, the TGI is above 100 µM.

As for `Cc1cccc(C[C@@]2(SCc3ccccc3)C(C)(C)[C@@H]3CC[C@@]2(C)C3)n1`, the TGI was found to be 51.1 µM.

In turn, `O=C1/C(=C/c2ccc([N+](=O)[O-])cc2)CNC/C1=C\c1ccc([N+](=O)[O-])cc1` registered a TGI above 70.7 µM.

In turn, `O=C(O)c1ccc(NS(=O)(=O)Cc2ccccc2)cc1` gave a TGI above 100 µM.

The compound `CCOC(=O)c1cnc2[nH]ccn2c1=O` yielded a TGI above 10 µM.

With `O=C1C(Br)=Cc2c(Cl)sc(Cl)c21`, the TGI is above 72.9 µM.

`O=[N+]([O-])C(=C(Sc1ccccc1)Sc1ccccc1)C(Cl)=C(Cl)Cl` yielded a TGI of 6.59 µM.

For the compound `NCCCC(N)C(=O)O` (stereo not given), the TGI was above 100 µM.

For the next assay, the system named is HS 578T breast. Put plainly: NCI-60 cell line screen, 48 h.
Compound `CO/N=C1/c2sccc2[C@H](NC(=O)CNC(=O)OC(C)(C)C)[C@@H]1O` showed a TGI above 100 µM.

`CCOC(=O)c1c(SCCN2CCCC2)n(-c2ccccc2)c(=S)n(-c2ccccc2)c1=O` registered a TGI above 100 µM.

The compound `O=c1c2cc(I)ccc2[nH]c(=S)n1Cc1ccccc1` displayed a TGI of 58.9 µM.

`Cc1cccc(C[C@@]2(SCc3ccccc3)C(C)(C)[C@@H]3CC[C@@]2(C)C3)n1` registered a TGI of 49.1 µM.

Regarding `O=C1/C(=C/c2ccc([N+](=O)[O-])cc2)CNC/C1=C\c1ccc([N+](=O)[O-])cc1`, the TGI is above 64.9 µM.

Consider `O=C(O)c1ccc(NS(=O)(=O)Cc2ccccc2)cc1`, for which the TGI was above 100 µM.

As to `CCOC(=O)c1cnc2[nH]ccn2c1=O`, the TGI was above 10 µM.

`O=C1C(Br)=Cc2c(Cl)sc(Cl)c21` had a TGI above 93.8 µM.

Compound `O=[N+]([O-])C(=C(Sc1ccccc1)Sc1ccccc1)C(Cl)=C(Cl)Cl` yielded a TGI of 17.6 µM.

For `NCCCC(N)C(=O)O` (stereo not given), the TGI is above 100 µM.

A further assay concerns IGROV1 ovarian. Put plainly: NCI-60 cell line screen, 48 h.
Consider `CO/N=C1/c2sccc2[C@H](NC(=O)CNC(=O)OC(C)(C)C)[C@@H]1O`, for which the TGI was above 100 µM.

As to `CCOC(=O)c1c(SCCN2CCCC2)n(-c2ccccc2)c(=S)n(-c2ccccc2)c1=O`, the TGI stood at 4.47 µM.

Compound `O=c1c2cc(I)ccc2[nH]c(=S)n1Cc1ccccc1` showed a TGI of 30.3 µM.

Compound `Cc1cccc(C[C@@]2(SCc3ccccc3)C(C)(C)[C@@H]3CC[C@@]2(C)C3)n1` registered a TGI of 28.7 µM.

`O=C1/C(=C/c2ccc([N+](=O)[O-])cc2)CNC/C1=C\c1ccc([N+](=O)[O-])cc1` had a TGI of 4.78 µM.

With `O=C(O)c1ccc(NS(=O)(=O)Cc2ccccc2)cc1`, the TGI was above 100 µM.

Consider `CCOC(=O)c1cnc2[nH]ccn2c1=O`, for which the TGI was above 10 µM.

`O=C1C(Br)=Cc2c(Cl)sc(Cl)c21` yielded a TGI of 7.67 µM.

In turn, `O=[N+]([O-])C(=C(Sc1ccccc1)Sc1ccccc1)C(Cl)=C(Cl)Cl` registered a TGI of 2.95 µM.

For the compound `NCCCC(N)C(=O)O` (stereo not given), the TGI is above 100 µM.
